Among the data in patent US20240199612A1, “IMIDAZOPYRIDINYL INHIBITORS OF PLASMA KALLIKREIN” (SHIRE HUMAN GENETIC THERAPIES, INC., priority 2021, published 2024) are EC50 and IC90 values, retold here.

For assay [1], the target named is human activated kallikrein enzyme (Homo sapiens, UniProt P03952). As to the kind of experiment: Inhibition of human activated plasma kallikrein, fluorogenic peptide substrate (PFR-AMC) assay, 500 pM enzyme format. Format: biochemical. To be noted: format with 500 pM activated kallikrein, 300 uM PFR-AMC, 30 min preincubation, 10 min reaction, room temperature; read-out: Primary Dose Response Assay: Average EC50. How it is done:
Inhibitory Activity of Exemplary Compounds against Plasma Kallikrein.
Compounds were evaluated for inhibition of the human activated kallikrein enzyme in two formats of an assay employing a fluorogenic peptide substrate. In one assay format, the concentrations of reagents were as follows: 20 mM Tris pH 7.5, 1 mM EDTA, 150 mM sodium chloride, 0.1% PEG-400, 0.1% Triton X-100, 500 pM activated kallikrein enzyme, 300 uM Pro-Phe-Arg-7-amido-4-methylcoumarin (PFR-AMC) substrate. Prior to reaction initiation with substrate, enzyme and inhibitors were preincubated for 30 min at room temperature. After initiation with substrate, reactions were incubated for 10 min at room temperature and fluorescence emission at 460 nm from 380 nm excitation measured with a microplate reader. In another assay format, the concentrations of reagents were as follows: 20 mM Tris pH 7.5, 1 mM EDTA, 150 mM sodium chloride, 0.1% PEG-400, 0.1% Triton X-100, 5 pM activated kallikrein enzyme, 300 uM PFR-AMC substrate. Prior to reaction initiation with substrate, enzyme and inhibitors were preincubated for 30 min at room temperature. After initiation with substrate, reactions were incubated for 18 hr at room temperature and fluorescence emission at 460 nm from 380 nm excitation measured with a microplate reader.

Another assay addresses T1, plasma kallikrein (Homo sapiens, UniProt P03952).
T1 construct: from tissue; host or cells: sodium citrate collected human plasma (78% final)
As to the kind of experiment: Neat human plasma assay (contact pathway-activated plasma, FXIIa, PFR-AMC substrate). To be noted: sodium citrate human plasma, 78% final plasma, 10 nM human FXIIa, 100 μM PFR-AMC, room temperature. It is filed as biochemical. How it is done: Neat Human and Rat Plasma Assay
To analyze inhibition of plasma kallikrein in an ex vivo setting, the potency of compounds was measure in contact pathway-activated plasma assays. In a fluorogenic peptide substrate assay, test compounds dissolved in DMSO were added to sodium citrate collected human or rat plasma in a 96-well microplate. Alternatively, citrated plasma was collected from rats administered the compounds orally or by IV. 10 nM of human FXIIa (Enzyme Research Laboratories) diluted in PKa buffer (20 mM Tris-HCl, pH 7.5, 150 mM NaCl, 1 mM EDTA, 0.1% PEG-8000, and 0.1% Triton X-100) was added to the plasma, followed by the 100 μM of the profluorescent, synthetic plasma kallikrein substrate PFR-AMC (also diluted in PKa buffer). Final plasma concentration in the reaction was 78%. Fluorescence was immediately monitored by excitation/emission wavelengths of 360 nm/480 nm respectively over a period of 5 minutes in a microplate reader. The resulting linear increase in fluorescence emission (reflecting PKa proteolysis of PFR-AMC substrate) was fit to extract a proteolytic rate (fluorescent units over time), and this rate was subsequently plotted against compound inhibitor concentration. Resulting plots were fit to a standard 4-parameter IC50/IC90 equation to determine min/max values, IC50/90, and slope. All experimental steps were performed at room temperature.

human activated kallikrein enzyme, sequence (P03952 391-638 limits assumed): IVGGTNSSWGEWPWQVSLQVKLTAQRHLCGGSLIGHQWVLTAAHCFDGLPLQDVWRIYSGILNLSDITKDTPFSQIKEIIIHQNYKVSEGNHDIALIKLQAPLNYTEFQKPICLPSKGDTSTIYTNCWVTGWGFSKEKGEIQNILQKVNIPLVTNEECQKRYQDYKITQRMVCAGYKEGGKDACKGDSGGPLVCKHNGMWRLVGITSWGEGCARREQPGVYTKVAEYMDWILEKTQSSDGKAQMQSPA
human activated kallikrein enzyme, sequence (P03952 20-390 partner limits assumed): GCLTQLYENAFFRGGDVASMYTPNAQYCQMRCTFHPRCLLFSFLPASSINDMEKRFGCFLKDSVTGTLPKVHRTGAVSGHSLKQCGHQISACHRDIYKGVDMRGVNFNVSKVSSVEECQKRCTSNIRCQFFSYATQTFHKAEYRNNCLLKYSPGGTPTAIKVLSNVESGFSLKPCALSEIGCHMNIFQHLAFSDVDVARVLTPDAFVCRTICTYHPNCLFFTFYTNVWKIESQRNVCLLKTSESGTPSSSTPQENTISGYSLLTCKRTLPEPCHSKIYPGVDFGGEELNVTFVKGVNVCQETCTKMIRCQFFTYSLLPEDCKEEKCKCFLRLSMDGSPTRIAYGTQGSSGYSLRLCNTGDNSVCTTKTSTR
T1 sequence (P03952 391-638 limits assumed): as the sequence (P03952 391-638 limits assumed) above
T1 sequence (P03952 20-390 partner limits assumed): as the sequence (P03952 20-390 partner limits assumed) above

Take `CC(OC(=O)Nc1cc(NCc2cn3cc(C4CC4)ccc3n2)ccn1)c1cccc(Cl)c1` (centres unmarked) [Compound I-15, 1-(3-chlorophenyl)ethyl (4-(((6-cyclopropylimidazo[1,2-a]pyridin-2-yl)methyl)amino)pyridin-2-yl)carbamate]: in assay [1], the EC50 was below 5 nM. This compound also gave a concentration for an effect of 90% (IC90) on plasma kallikrein of 2500 to 7500 nM.
In the case of `O=C(Nc1cc(NCc2cn3cc(C4CC4)ccc3n2)ncn1)OCc1cc(Cl)ccc1-n1cnnn1` [Compound I-8, 5-chloro-2-(1H-tetrazol-1-yl)benzyl (6-(((6-cyclopropylimidazo[1,2-a]pyridin-2-yl)methyl)amino)pyrimidin-4-yl)carbamate], the EC50 in assay [1] was below 5 nM. The same compound returned an IC90 against plasma kallikrein of at most 2500 nM.
Take `O=C(Nc1cc(NCc2cn3cc(C4CC4)ccc3n2)ncn1)OCc1cc(Cl)ccn1` [Compound I-26, (4-chloropyridin-2-yl)methyl (6-(((6-cyclopropylimidazo[1,2-a]pyridin-2-yl)methyl)amino)pyrimidin-4-yl)carbamate]: in assay [1], the EC50 was below 5 nM. The compound also registered a 90% effect concentration (IC90) at plasma kallikrein of at most 2500 nM.
For `O=C(Nc1cc(NCc2cn3cc(C4CC4)ccc3n2)ccn1)OCc1cc(Cl)ccc1-n1cnnn1` [Compound I-11, 5-chloro-2-(1H-tetrazol-1-yl)benzyl (4-(((6-cyclopropylimidazo[1,2-a]pyridin-2-yl)methyl)amino)pyridin-2-yl)carbamate] the same measures were below 5 nM and 2500 to 7500 nM.
The corresponding values for `O=C(Nc1cc(NCc2cn3cc(C4CC4)ccc3n2)ccn1)OCc1cccc(Cl)c1` [Compound I-13, 3-chlorobenzyl (4-(((6-cyclopropylimidazo[1,2-a]pyridin-2-yl)methyl)amino)pyridin-2-yl)carbamate] are below 5 nM and 7500 to 15000 nM.
With `CC(OC(=O)Nc1cc(NCc2cn3cc(C4CC4)ccc3n2)ccn1)c1cc(Cl)ccc1-n1cnnn1` (centres unmarked) [Compound I-21, 1-(5-chloro-2-(1H-tetrazol-1-yl)phenyl)ethyl (4-(((6-cyclopropylimidazo[1,2-a]pyridin-2-yl)methyl)amino)pyridin-2-yl)carbamate], the concentration giving a half-maximal response (EC50) in assay [1] was below 5 nM. For the same compound, the concentration for an effect of 90% (IC90) at plasma kallikrein fell in the range of 2500 to 7500 nM.
For `O=C(NCc1cc(Cl)ccc1-n1cnnn1)Nc1cc(NCc2cn3cc(C4CC4)ccc3n2)ccn1` [Compound I-10, 1-(5-chloro-2-(1H-tetrazol-1-yl)benzyl)-3-(4-(((6-cyclopropylimidazo[1,2-a]pyridin-2-yl)methyl)amino)pyridin-2-yl)urea] the same measures were below 5 nM and 2500 to 7500 nM.

One may read the EC50 as the concentration that produces a half-maximal response. The term IC90 denotes the concentration at which the effect reaches the 90% level. A low value points to an effect from little substance.
